Results as given in patent US20250388896A1, “COMPOSITION AND METHODS FOR TRANSGENE INSERTION” (ARTISAN DEVELOPMENT LABS, INC, priority 2022, published 2025).

Columns and labels:
Format in all cases: cell-based, human
PDCD1 protein = test: PDCD1 knock-out: surface expression of PDCD1 protein by flow cytometry; settings: Jurkat cells
Description: Flow cytometric assessments were carried out on a CytoFLEX S instrument (Beckmen Coulter) using a 96-well plate format. Measurements of cell viability, PDCD1 expression, GFP expression, and CAR expression were performed on 10,000 or 20,000 single cell events in Jurkat or primary T-cells, respectively.
For detection of PDCD1 knock-out efficiency, approx. 250,000 Jurkat cells per sample were transferred onto 96-well V-bottom cell culture plates and assessed following a series of consecutive washing and staining steps. The first step included centrifuging the cells at 300 g for 5 minutes at 4° C. and discarding the supernatant. Afterwards, the cells were stained using 100 μL Cell Staining Buffer (Biolegend) with APC/Cyanine7 anti-human CD279 (PD-1) antibody (1:100; Biolegend) and incubated for 30 minutes at 4° C. in the dark. The cells were then centrifuged at 300 g for 5 minutes at 4° C. and the supernatant discarded. The next step included two repeats of centrifugation at 300 g for 5 minutes at 4° C., supernatant removal, and cell washing in 150 μL ice-cold Cell Staining Buffer (Biolegend). In the final step, the cells were re-suspended in 100 μL Cell Staining Buffer for the flow cytometry measurements (excitation: red laser; emission: […]).
High-efficiency gNAs identified in our initial analysis were validated by assaying INDEL frequency for the top three or five gNAs for each of the selected immunologically relevant genes (FIG. 14). […] Alternating grey and white zones on the plot represent groups of three to five high-efficiency gNAs per locus. […] Using the CRISPresso2 software, the degree of open reading frame (ORF) disruption for each of the validated gNAs was estimated (FIG. 14). In addition, for four high-efficiency gNAs targeting three different exons at the PDCD1 locus, surface expression of the PDCD1 protein was measured by flow cytometry 4, 7, and 11 days post-transfection (data not shown). […] Average fraction of INDELs leading to frameshifts (dashed line) is approx. 66%. Alternating grey and white zones on the plot represent groups of three to five high-efficiency gNAs per locus.

[1] = test system: eight different loci (PDCD1, TIM3, LAG3, TIGIT, CTLA4, PTPN6, PTPN11, CD247); test: gNA screen and validation: INDEL and frameshift frequency at eight loci by amplicon sequencing; settings: Jurkat cells; gNAs adjacent to all YTTN PAM variants
Description: (§1) Ribonucleoprotein complexes (RNPs) were generated by incubating respective guide nucleic acids (gNAs) with MAD7 in the molar ratio of 3:2 gNA:MAD7 for 15 minutes at room temperature immediately before transfection. For Jurkat experiments, the RNP complexes were generated by mixing the respective gNA (150 pmol), MAD7 (100 pmol), and nuclease-free water, unless otherwise stated.
(§2) Lonza 4D Nucleofector with Shuttle unit (V4SC-2960 Nucleocuvette Strips) was used for transfection, following the manufacturer's instructions. […]
(§3) Extracted genomic DNA was quantified using the NanoDrop (ThermoFisher Scientific). […] The DNA was eluted from the beads with nuclease-free water and the size of the purified amplicons analyzed on a 2% agarose E-gel using the E-gel electrophoresis system (ThermoFisher Scientific). In the second PCR, unique pairs of Illumina-compatible indexes (Nextera XT Index Kit v2) were added to the amplicons using the KAPA HiFi HotStart Ready Mix (Roche). […] Sizes of the purified DNA fragments were validated on a 2% agarose gel using the E-gel electrophoresis system (ThermoFisher Scientific), quantified using Qubit dsDNA HS Assay Kit (Thermo Fisher) and then pooled in equimolar concentrations. […] The final library was sequenced on Illumina MiSeq System using the MiSeq Reagent Kit v.2 (300 cycles, 2×250 bp, paired-end reads). […]

[2] = test system: predicted off-target sites; test: INDEL frequency at predicted off-target sites by targeted deep sequencing; settings: Jurkat cells
Text: Extracted genomic DNA was quantified using the NanoDrop (ThermoFisher Scientific). […] Amplification products were purified with Agencourt AMPure XP beads (Ramcon), using the sample to beads ratio of 1:1.8. The DNA was eluted from the beads with nuclease-free water and the size of the purified amplicons analyzed on a 2% agarose E-gel using the E-gel electrophoresis system (ThermoFisher Scientific). In the second PCR, unique pairs of Illumina-compatible indexes (Nextera XT Index Kit v2) were added to the amplicons using the KAPA HiFi HotStart Ready Mix (Roche). The amplified products were purified with Agencourt AMPure XP beads (Ramcon), using the sample to bead ratio of 1:1.8. […] Sizes of the purified DNA fragments were validated on a 2% agarose gel using the E-gel electrophoresis system (ThermoFisher Scientific), quantified using Qubit dsDNA HS Assay Kit (Thermo Fisher) and then pooled in equimolar concentrations. […] The final library was sequenced on Illumina MiSeq System using the MiSeq Reagent Kit v.2 (300 cycles, 2×250 bp, paired-end reads). […]
Initial quality assessment of the obtained reads was performed with FastQC36. […] For the ORF disruption analysis, CRISPRessoBatch command with the parameters --cleavage_offset 1 -coding_seq <EXON_SEQ> --quantification_window_size 0 --quantification_window_center 1 --expand_ambiguous_alignments was used. […]

TIM3 = test: gNA screen INDEL/frameshift frequency, TIM3; settings: Jurkat cells; CRISPResso2 ORF disruption analysis
Description: as §1, §2, §3

[3] = measured 4, 7 and 11 days post-transfection, day of value not stated

Substance: crPDCD1 4: high-efficiency gNA targeting the PDCD1 locus (guide CUAGCGGAAUGGGCACCUCAU; listed as RNA, further chemistry not given here)
- surface expression of the PDCD1 protein (PDCD1 protein; [3]): 85%

Substance: crPDCD1 3: high-efficiency gNA targeting the PDCD1 locus (guide CAGUGGCGAGAGAAGACCCCG; listed as RNA, further chemistry not given here)
- surface expression of the PDCD1 protein (PDCD1 protein; [3]): 35%

Substance: MAD7: type V-A Cas nuclease MAD7
- editing by PAM motif [1]: demonstrated editing with all eight combinations of YTTN PAM
- INDEL frequency of MAD7 at predicted off-target sites ([2]; all assayed off-target sites, Pairwise T-test, P≥0.05): No significant INDEL frequency

Substance: crPDCD1_2: gNA targeting the PDCD1 gene at the extracellular domain of the protein (guide UCUGCAGGGACAAUAGGAGCC; listed as RNA, further chemistry not given here)
- surface expression of the PDCD1 protein (PDCD1 protein; 4 days post-transfection): 10%
- surface expression of the PDCD1 protein (PDCD1 protein; day 11 post-transfection): remained at this level
- off-target activity (INDEL formation) at predicted off-target sites ([2]; 25 predicted sites, up to four mismatches, crPDCD1_2_13 and crPDCD1_2_15 sites, insignificant vs MOCK (P≥0.05)): low-level off-target activity

Substance: crPDCD1_5: high-efficiency gNA targeting the PDCD1 locus (guide GUGCUAAACUGGUACCGCAUG; listed as RNA, further chemistry not given here)
- surface expression of the PDCD1 protein (PDCD1 protein; [3]): 85%

Substance: crTIM3_3: validated gNA targeting TIM3 (guide UAAGUAGUAGCAGCAGCAGCA; listed as RNA, further chemistry not given here)
- frameshifts frequency (fraction of frameshift to INDEL) (TIM3): 44%

Substance: crTIM3_1: validated gNA targeting TIM3 (guide CUUGUAAGUAGUAGCAGCAGC; listed as RNA, further chemistry not given here)
- frameshifts frequency (fraction of frameshift to INDEL) (TIM3): 23%
